Source: patent US8569327B2, “Phenanthroindolizidine derivative and NFκB inhibitor containing same as active ingredient” (Kabushiki Kaisha Yakult Honsha, priority 2008, dated 2013)

How the values were obtained:
NFκB = experiment: Inhibitory action on the NFκB activity, luciferase assay in SW480/NRE-Luc cells; assay type: cell-based, human; conditions: for IC50: Homo sapiens, SW480, read-out: NFκB inhibitory activity IC50; for NFκB inhibitory activity IC50: SW480/NRE-Luc cells, compound 1 h then 50 ng/mL TNFα 4 h, luciferase
From the text: (§1) The action of the phenanthroindolizidine alkaloid compound of the present invention on the NFκB activity was studied using a luciferase assay. Human colon cancer SW480 cells were transfected with pNFκB-Luc Plasmid (Stratagene), which is a reporter vector in which a five-time tandem repeat of the NFκB responsive element (NRE) is integrated into the upstream of the luciferase gene, using Lipofectamine 2000 (Invitrogen Corporation) in accordance with the attached operating procedure. Subsequently, the cells were cultured in an RPMI1640 medium containing 10% FBS, 100 U/mL penicillin, 100 μg/mL streptomycin, and 0.5 mg/mL G418 to produce SW480 cells having the luciferase gene, the expression of which is regulated by NRE, stably introduced therein (SW480/NRE-Luc cells). Likewise, SW480 cells were transfected with pGL3-Control Vector (Promega Corporation), which is a reporter vector in which the SV40 promoter is integrated into the upstream of the luciferase gene, to produce SW480 cells having the luciferase gene, the expression of which is regulated by the SV40 promoter, stably introduced therein (SW480/SV40-Luc cells). The SW480/NRE-Luc cells or the SW480/SV40-Luc cells were suspended in an RPMI1640 medium containing 10% FBS, 100 U/mL penicillin, and 100 μg/mL streptomycin (10% FBS/RPMI1640), and then seeded in a 96-well microplate, followed by culturing under conditions of 5% CO2 and at 37° C. (5000 cells/well). After an overnight culture, the compound of the present invention was added, followed by culturing for one hour. Further, 50 ng/mL TNFα (Sigma-Aldrich Corporation) was added, followed by culturing for four hours. Subsequently, a Steady-Glo Luciferase Assay reagent (Promega Corporation) was added, and the luminescent intensity was detected by SpectraMax M5e (Molecular Devices, Inc.) to measure the intracellular luciferase activity. It is to be noted that the action of the compound of the present invention on the NFκB activity or the SV40 promoter activity was shown as IC50 values (the concentration of a test compound needed for 50% inhibition of the induction of the luciferase expression).

SV40 promoter = SV40 promoter activity, luciferase assay in SW480/SV40-Luc cells; assay type: cell-based, human; conditions: for IC50: Homo sapiens, SW480, read-out: SV40 promoter inhibitory activity IC50; for SV40 promoter inhibitory activity IC50: SW480/SV40-Luc cells, luciferase
From the text: as §1

[1] = system: human colon cancer SW480 cells; experiment: Inhibitory action on the proliferation of SW480 cells; assay type: cell-based; conditions: 48 hours, TetraColor ONE; for IC50: Homo sapiens, SW480
Method: (§2) The action of the phenanthroindolizidine alkaloid compound of the present invention on the proliferation of human colon cancer SW480 cells, HT-29 cells, and human non-small cell lung cancer A549 cells was studied. The SW480 cells were suspended in a 10% FBS/RPMI1640 and then seeded in a 96-well microplate, followed by culturing in 5% CO2 at 37° C. (2000 cells/well). The A549 cells and the HT-29 cells were each suspended in a DMEM medium containing 10% FBS, 100 U/mL penicillin, and 100 μg/mL streptomycin (10% FBS/DMEM) and a DMEM F-12 HAM medium containing 10% FBS, 100 U/mL penicillin, and 100 μg/mL streptomycin (10% FBS/DMEM F12 HAM), and then seeded in 96-well microplates, followed by culturing in 5% CO2 at 37° C. (1000 cells/well). After an overnight culture, the compound of the present invention was added, followed by further culturing for 48 hours (SW480 cells) and 96 hours (A549 cells and HT-29 cells). After culturing, the number of viable cells was counted using TetraColor ONE (Seikagaku Corporation) in accordance with the attached operating procedure. The results were expressed as the concentration of a test compound needed for 50% inhibition of the proliferation of the cells (IC50).

[2] = system: human colon cancer HT-29 cells; experiment: Inhibitory action on the proliferation of HT-29 cells; assay type: cell-based; conditions: 96 hours, TetraColor ONE; for IC50: Homo sapiens, HT-29
Method: as §2

[3] = system: human non-small cell lung cancer A549 cells; experiment: Inhibitory action on the proliferation of A549 cells; assay type: cell-based; conditions: 96 hours, TetraColor ONE; for IC50: Homo sapiens, A549
Method: as §2

[4] = system: mice transplanted with mouse fibrosarcoma Meth A cells; experiment: Animal toxicity test; assay type: in vivo; conditions: intravenous days 1, 5, 9, observed three weeks
Method: Also, the toxicity of known phenanthroindolizidine alkaloid compounds, namely (12aS,13S)-6,7-dimethoxy-9,10,11,12,12a,13-hexahydro-9a-aza-cyclopenta[b]triphenylene-3,13-diol (known compound 1; refer to WO01/023384) and (12aS,13S)-3,6,7-trimethoxy-9,10,11,12,12a,13-hexahydro-9a-aza-cyclopenta[b]triphenylene-13-ol (known compound 2; refer to Planta Med., 2002, 68: 186-188), was simultaneously studied. To a control group, a physiological saline solution, a solvent, was administered. As a result, as shown in the following Tables 35 and 36, all the mice survived in a group administered with the compound of the present invention.

Row | Compound | IC50 (NFκB) | IC50 (SV40 promoter) | IC50 [1] | IC50 [2] | IC50 [3] | Mortality rate ([4]; total dose 25 mg/kg) | Mortality rate ([4]; total dose 50 mg/kg) | NFκB inhibitory activity IC50 (NFκB) | SV40 promoter inhibitory activity IC50 (SV40 promoter) | SW480 proliferation inhibitory action IC50 [1] | HT-29 proliferation inhibitory action IC50 [2] | A549 proliferation inhibitory action IC50 [3] | Mortality rate ([4]; total dose 25 mg/kg, 25 mg/kg) | Mortality rate ([4]; total dose 25 mg/kg, listed as known compound 2, 25 mg/kg) | Mortality rate ([4]; total dose 50 mg/kg, 50 mg/kg) | Mortality rate ([4]; total dose 50 mg/kg, listed as known compound 2, 50 mg/kg) | Mortality rate ([4]; total dose 50 mg/kg, listed as known compound 1, 50 mg/kg)
1 | COc1cc2c3c(c4ccccc4c2cc1OC)[C@@H](O)[C@H]1CCCN1C3.Cl [Compound 2, (12aR,13R)-6,7-dimethoxy-9,10,11,12,12a,13-hexahydro-9a-aza-cyclopenta[b]triphenylene-13-ol hydrochloride] | 387 ng/mL | > 10000 ng/mL | 1020 ng/mL | 204 ng/mL | 211 ng/mL | 0/5 | 0/5 |  |  |  |  |  |  |  |  |  | 
2 | CCc1ccc2c3c(c4cc(OC)c(OC)cc4c2c1)CN1CCC[C@@H]1[C@@H]3O.Cl [Compound 4, (12aR,13R)-3-ethyl-6,7-dimethoxy-9,10,11,12,12a,13-hexahydro-9a-aza-cyclopenta[b]triphenylene-13-ol hydrochloride] | 201 ng/mL | > 10000 ng/mL | 513 ng/mL | 121 ng/mL | 101 ng/mL | 0/5 | 0/5 |  |  |  |  |  |  |  |  |  | 
3 | COc1cc2c3c(c4ccc(F)cc4c2cc1OC)[C@@H](O)[C@H]1CCCN1C3.Cl [Compound 6, (12aR,13R)-3-fluoro-6,7-dimethoxy-9,10,11,12,12a,13-hexahydro-9a-aza-cyclopenta[b]triphenylene-13-ol hydrochloride] | 166 ng/mL | > 10000 ng/mL | 567 ng/mL | 38.8 ng/mL | 34.1 ng/mL | 0/5 | 0/5 |  |  |  |  |  |  |  |  |  | 
4 | COc1cc2c3c(c4ccc(OC(C)=O)cc4c2cc1OC)[C@H](O)[C@@H]1CCCN1C3.Cl [Compound 7, acetic acid(12aS,13S)-13-hydroxy-6,7-dimethoxy-9,10,11,12,12a,13-hexahydro-9a-aza-cyclopenta[b]triphenylene-3-yl ester hydrochloride] |  |  |  |  |  | 0/5 | 0/5 | 0.25 ng/mL | >100 ng/mL | 0.41 ng/mL | 0.080 ng/mL | 0.63 ng/mL |  |  |  |  | 
5 | COc1cc2c3c(c4ccc(OC(C)=O)cc4c2cc1OC)[C@H](OC(C)=O)[C@@H]1CCCN1C3.Cl [Compound 8, acetic acid(12aS,13S)-3-acetoxy-6,7-dimethoxy-9,10,11,12,12a,13-hexahydro-9a-aza-cyclopenta[b]triphenylene-13-yl ester hydrochloride] |  |  |  |  |  | 0/5 | 0/5 | 63.2 ng/mL | >1000 ng/mL | 17.0 ng/mL | 5.8 ng/mL | 1.5 ng/mL |  |  |  |  | 
6 | COc1cc2c3c(c4ccc(OC(=O)N5CCC(N6CCCCC6)CC5)cc4c2cc1OC)[C@H](O)[C@@H]1CCCN1C3 [Compound 13, [1,4′]bipiperidinyl-1′-carboxylic acid(12aS,13S)-13-hydroxy-6,7-dimethoxy-9,10,11,12,12a,13-hexahydro-9a-aza-cyclopenta[b]triphenylene-3-yl ester] |  |  |  |  |  | 0/5 | 0/5 | 20.3 ng/mL | >1000 ng/mL | 19.5 ng/mL | 21.6 ng/mL | 7.4 ng/mL |  |  |  |  | 
7 | COc1cc2c3c(c4ccc(OC(C)=O)cc4c2cc1OC)C(F)[C@@H]1CCCN1C3.Cl (stereo partly drawn) [Compound 14, acetic acid(S)-13-fluoro-6,7-dimethoxy-9,10,11,12,12a,13-hexahydro-9a-aza-cyclopenta[b]triphenylene-3-yl ester hydrochloride] |  |  |  |  |  | 0/5 | 0/5 | 1.7 ng/mL | >100 ng/mL | 2.1 ng/mL | 0.62 ng/mL | 0.23 ng/mL |  |  |  |  | 
8 | COc1cc2c3c(c4ccc(OC(=O)c5cccs5)cc4c2cc1OC)[C@H](O)[C@@H]1CCCN1C3.Cl [Compound 19, thiophene-2-carboxylic acid(12aS,13S)-13-hydroxy-6,7-dimethoxy-9,10,11,12,12a,13-hexahydro-9a-aza-cyclopenta[b]triphenylene-3-yl ester hydrochloride] |  |  |  |  |  | 0/5 | 0/5 | 3.0 ng/mL | >100 ng/mL | 1.3 ng/mL | 1.69 ng/mL | 0.82 ng/mL |  |  |  |  | 
9 | COc1ccc2c3c(c4cc(OC)c(OC)cc4c2c1)CN1CCC[C@H]1[C@H]3O [Known Compound 2, (12aS,13S)-3,6,7-trimethoxy-9,10,11,12,12a,13-hexahydro-9a-aza-cyclopenta[b]triphenylene-13-ol, reference compound] |  |  |  |  |  |  |  |  |  |  |  |  | 2/5 | some of the mice also died | 5/5 | all the mice died | 
10 | COc1cc2c3c(c4ccc(O)cc4c2cc1OC)[C@H](O)[C@@H]1CCCN1C3 [Known compound 1, (12aS,13S)-6,7-dimethoxy-9,10,11,12,12a,13-hexahydro-9a-aza-cyclopenta[b]triphenylene-3,13-diol, reference compound] |  |  |  |  |  | 0/5 |  |  |  |  |  |  |  |  | 5/5 |  | all the mice died
11 | benzhydryl-((S)-6,7-dimethoxy-3-pyrrolidine-9,10,11,12,12a,13-hexahydro-9a-aza-cyclopenta[b]triphenylene-3-yl)-amine methanesulfonate [Compound 58] |  |  |  |  |  |  |  | 16.2 ng/mL | >10000 ng/mL | 42.3 ng/mL | 52.2 ng/mL | 20.7 ng/mL |  |  |  |  | 
